Measurements from publication PMC10641236, “Influenza A virus replication has a stronger dependency on Raf/MEK/ERK signaling pathway activity than SARS-CoV-2” (Frontiers in Cellular and Infection Microbiology, 2023).
Where two headings read alike, the source gives them in different places.

How the values were obtained:
[1] = tested on: MEK1/2 (ERK1/2 phosphorylation); assay: IC50 determination in virus-infected cells, pERK/ERK ratio by WES; assay type: cell-based, Homo sapiens; settings: for IC50: Homo sapiens
Experimental: Calu-3 and Caco-2 cells were seeded in 24-well plates (Greiner Bio-One GmbH, Frickenhausen, Germany) and grown to 90% confluence. The cells were washed once with infection medium [IMDM supplemented with 0.2% bovine serum albumin (BSA) (Carl Roth GmbH + Co. KG, Karlsruhe, Germany) and 1% penicillin–streptomycin] prior to infection with a multiplicity of infection (MOI) of 0.01 of IAV PR8 or SARS-CoV-2 for 1 h in 200 µL of infection medium per well. Afterwards, the virus inoculum was removed completely, and the cells were washed once with infection medium and then treated with 1 mL per well of different concentrations of zapnometinib in infection medium with 1% dimethyl sulfoxide (DMSO) (Merck Millipore, Burlington, MA, USA) for 24 h at 37°C, 5% CO2. Supernatants were harvested and stored at −80°C for subsequent determination of virus titer and EC50 value. Cell lysates were prepared as described in the “Preparation of cell lysates and WES™ analysis” section for WES™ analysis.
Cells were lysed using cold modified RIPA buffer [0.24% (w/v) tris base (Sigma-Aldrich, St. Louis, Missouri, USA), 0.88% (w/v) NaCl (Carl Roth, Karlsruhe, Germany), 0.2% (v/v) 500 mM ethylenediaminetetraacetic acid (EDTA) (Sigma-Aldrich, St. Louis, Missouri, USA), 1% (v/v) Triton X-100 (Sigma-Aldrich, St. Louis, Missouri, USA), 0.5% (w/v) sodium deoxycholate (Sigma-Aldrich, St. Louis, Missouri, USA), 0.1% (w/v) sodium dodecyl sulfate (SDS) (Carl Roth, Karlsruhe, Germany), 10% (v/v) glycerol (Carl Roth, Karlsruhe, Germany), 0.05% phenylmethylsulfonyl fluoride (PMSF) (Carl Roth, Karlsruhe, Germany), 0.01% Benzonase® Nuclease (Sigma-Aldrich, St. Louis, Missouri, USA), protease inhibitor cocktail (Roche, Basel, Switzerland), and phosphatase inhibitor cocktail (Roche, Basel, Switzerland) in water]. Determination of the protein concentration was performed using the Pierce™ BCA Protein Assay Kit (Thermo Fisher Scientific Inc., Waltham, MA, USA) according to the manufacturer’s instructions. The samples were analyzed by Wes™ using a total protein concentration of 0.25–0.5 µg/µL for each sample, the Jess/Wes Separation kit (12–230 kDa), primary antibodies against ERK1/2, p44/42 MAPK (137F5) Rabbit mAb (Cell Signaling Technology, Danvers, MA, USA, Cat. No. 4695S) and phospho-ERK1/2 (pERK1/2), Phospho-p44/42 MAPK (Erk1/2) (Thr202/Tyr204) (D13.14.4E), XP® Rabbit mAb (Cell Signaling Technology, Danvers, MA, USA, Cat. no. 4370S) in a 1:50 dilution, anti-Influenza A virus Nucleoprotein (NP) antibody (rabbit MAb) (Sino Biological, Beijing, China Cat.no 40208-R010) in a 1:150 dilution, SARS-CoV-2 nucleocapsid protein antibody (ProSci Inc., Poway, CA, USA, Cat. no. 35-580) in a 1:100 dilution, the anti-goat, anti-rabbit, and anti-mouse detection modules, and the EZ Standard Pack 1 (12–230 kDa), according to the manufacturer’s instructions. Analysis of the obtained data was performed using the Compass for SW 4.1.0 software, Microsoft Excel, and the GraphPad Prism 9.2.0 software. Ratios were calculated from the area under the curve of the respective detected signals.
Twenty-four hours before the experiment, the growth medium was exchanged to medium with respective FBS or BSA concentration. Then, cells were stimulated by the addition of tumor necrosis factor alpha (TNF-α) (Sigma-Aldrich, St. Louis, Missouri, USA) for 30 min at 37°C, 5% CO2, followed by treatment with different zapnometinib concentrations and a DMSO (solvent) control for 1 h. For determination of the IC50 value in cells infected with IAV PR8 or SARS-CoV-2, cells were infected with the respective virus and treated with zapnometinib for 24 h as described in the “Virus yield reduction assay” section. After incubation, cell lysates were prepared, and the samples were analyzed by WES™ as described in the “Preparation of cell lysates and WES™ analysis” section. The pERK/ERK ratio was calculated and normalized to the solvent control. […]

Caco-2 cells = assay type: cell-based; settings: human, 24 h
Experimental: (§1) Per well, 2.5 × 10^4 Caco-2 cells or 4 × 10^4 Calu-3 cells were seeded in 96-well plates (Greiner Bio-One, Kremsmünster, Austria) and incubated for 24 h at 37°C, 5% CO2. Cell viability was assessed using a WST-1 assay according to the manufacturer’s recommendations (Roche, Basel, Switzerland). For reference, cell viability was assessed at 0 h and after 24 h of treatment with different concentrations of zapnometinib in medium containing 1% DMSO. The measured cell viability was normalized to the 0-h control. The CC50 value was determined using the “Sigmoidal, 4PL, X is log(concentration)” equation in GraphPad Prism.

Calu-3 cells = assay type: cell-based; settings: human, 24 h
Experimental: as §1

ERK2 = ERK2 content in cell lysates by WES; assay type: cell-based, Homo sapiens; settings: Caco-2 and Calu-3 cell lysates, 24 h of treatment
Experimental: Cells were lysed using cold modified RIPA buffer [0.24% (w/v) tris base (Sigma-Aldrich, St. Louis, Missouri, USA), 0.88% (w/v) NaCl (Carl Roth, Karlsruhe, Germany), 0.2% (v/v) 500 mM ethylenediaminetetraacetic acid (EDTA) (Sigma-Aldrich, St. Louis, Missouri, USA), 1% (v/v) Triton X-100 (Sigma-Aldrich, St. Louis, Missouri, USA), 0.5% (w/v) sodium deoxycholate (Sigma-Aldrich, St. Louis, Missouri, USA), 0.1% (w/v) sodium dodecyl sulfate (SDS) (Carl Roth, Karlsruhe, Germany), 10% (v/v) glycerol (Carl Roth, Karlsruhe, Germany), 0.05% phenylmethylsulfonyl fluoride (PMSF) (Carl Roth, Karlsruhe, Germany), 0.01% Benzonase® Nuclease (Sigma-Aldrich, St. Louis, Missouri, USA), protease inhibitor cocktail (Roche, Basel, Switzerland), and phosphatase inhibitor cocktail (Roche, Basel, Switzerland) in water]. Determination of the protein concentration was performed using the Pierce™ BCA Protein Assay Kit (Thermo Fisher Scientific Inc., Waltham, MA, USA) according to the manufacturer’s instructions. […] Ratios were calculated from the area under the curve of the respective detected signals.

IAV PR8 = assay type: cell-based; settings: 100 µM, Caco-2 cells, MOI 4, 10 h
[2] = human, in vivo; cited from earlier work

O=C(O)c1ccc(F)c(F)c1Nc1ccc(I)cc1Cl [zapnometinib, 2-(2-chloro-4-iodophenylamino)-N-3,4-difluoro benzoic acid]
Level of MEK activation (ERK phosphorylation) at EC50 ([1]; Caco-2 cells, IAV PR8, interpolated at EC50 5.72 µM): 37% | Level of MEK activation (ERK phosphorylation) at EC50 ([1]; Caco-2 cells, SARS-CoV-2, interpolated at EC50 22.9 µM): 25% | Level of MEK activation (ERK phosphorylation) at EC50 ([1]; Calu-3 cells, IAV PR8, interpolated at EC50 7.13 µM): 25% | Level of MEK activation (ERK phosphorylation) at EC50 ([1]; Calu-3 cells, SARS-CoV-2, interpolated at EC50 19.7 µM): 10% | IC50 ([1]; Caco-2, 24 h, read-out: IC50 value (ERK phosphorylation) in infected cells, IAV PR8-infected Caco-2 cells, MOI 0.01, 0.2% BSA, 24 h): 2.24 µM | IC50 ([1]; Caco-2, 24 h, read-out: IC50 value (ERK phosphorylation) in infected cells, SARS-CoV-2-infected Caco-2 cells, MOI 0.01, 0.2% BSA, 24 h, bottom plateau constrained to 0): 5.65 µM | IC50 ([1]; Calu-3, 24 h, read-out: IC50 value (ERK phosphorylation) in infected cells, IAV PR8-infected Calu-3 cells, MOI 0.01, 0.2% BSA, 24 h): 1.01 µM | IC50 ([1]; Calu-3, 24 h, read-out: IC50 value (ERK phosphorylation) in infected cells, SARS-CoV-2-infected Calu-3 cells, MOI 0.01, 0.2% BSA, 24 h): 1.99 µM | CC50 (Caco-2 cells): 360 µM | CC50 (Calu-3 cells): 303 µM | effect on ERK2 content in the cells (ERK2): does not affect | Infected cells (IAV PR8 NP positive) normalized to solvent control (IAV PR8): 44.9% | localization of the IAV NP (IAV PR8): retention of the IAV NP in the nucleus | tolerability in phase I clinical trial [2]: well tolerated
